Data on three compounds can be found in patent publication US6284461A, “Use of inhibitors in reporter assays” (priority 1998, dated 2001).

In assay [1] the target is T1, cytosolic beta-lactamase reporter enzyme (Escherichia coli, UniProt P62593).
T1 construct: CCF2/AM read-out
The assay is described as follows: Agonist titration in CHO GPCR reporter cells with or without inhibitor pretreatment (Example VI). The class given is cell-based.

In assay [2] the target is T1, cytosolic beta-lactamase reporter enzyme. The assay is described as follows: Inhibition of cytosolic beta-lactamase reporter activity in live Jurkat cells, CMV promoter (Example II). The conditions noted are these: 300 μM inhibitor, one hour at 37° C. The class given is cell-based. As for the experimental part: (§1) One day before the assay, CHO cells (an adherent cell line) expressing a cytosolic beta-lactamase reporter gene (WO 96/30540 to Tsien et al., published Oct. 3, 1996)) under control of a G-protein coupled receptor (GPCR) were plated in six clear-bottom 96-well microtiter plates at 75% confluency. The cells in half of the wells were stimulated overnight with agonist to the GPCR. Thus, these cells expressed high levels of the reporter enzyme encoded by the reporter gene. The other half of the cells were maintained without agonist in media having dialyzed fetal calf serum. This population is representative of cells with only background levels of beta-lactamase expression. […] After thirty minutes of incubation, the fluorescence from the wells was determined using a microtiter plate fluorimeter with excitation at 395/20nm and emission at 460/40nm and 530/30nm. The raw fluorescence emission values were corrected for the signal from wells without cells. […]
Jurkat cells (a non-adherent cell line) expressing a cytosolic beta-lactamase reporter enzyme (WO 96/30540 to Tsien et al., published Oct. 3, 1996) under the control of the constitutively active cytomegalovirus early promoter (CMV promoter) were incubated with three inhibitors: clavulanic acid, imipenem and HOB-1-70. […] Cells were treated for one hour at 37° C., after which beta-lactamase reporter activity was assessed as in Example I (FIG. 2).

Another assay has as its system beta-lactamase. To be noted: cited from earlier work.
In the next assay the target is T2, cytosolic beta-lactamase (Escherichia coli, UniProt P62593).
T2 construct: CCF2/AM read-out
T2 sequence (P62593 24-286 limits assumed): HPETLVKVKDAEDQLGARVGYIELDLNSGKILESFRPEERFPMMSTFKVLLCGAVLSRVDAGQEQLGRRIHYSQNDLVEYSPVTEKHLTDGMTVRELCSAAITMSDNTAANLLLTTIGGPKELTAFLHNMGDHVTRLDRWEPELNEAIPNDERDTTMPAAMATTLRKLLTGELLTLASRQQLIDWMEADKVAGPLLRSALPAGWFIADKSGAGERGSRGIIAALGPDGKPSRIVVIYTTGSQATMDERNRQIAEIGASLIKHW
The assay is described as follows: Inhibitor added together with CCF2/AM in CHO nuclear receptor beta-lactamase reporter cells (Example IX). The class given is cell-based.

Assay [3] concerns cytosolic beta-lactamase activity. Kind of assay: Background versus de novo beta-lactamase activity in CHO GPCR reporter cells after inhibitor pretreatment (Example V). The class given is cell-based. To be noted: 300 μM clavulanic acid sixteen hours, washed, unstimulated, three hours. As for the experimental part: as §1, with “expression. These unstimulated cells expressed the reporter enzyme at levels lower than in the stimulated cells. After sixteen hours, the media was removed, the stimulated cells and the unstimulated cells were washed once by replacing the culture media by […] (BSA). Because CHO cells are adherent, aspiration is the preferred method of removing culture media, which is then replaced with wash media or wash solution.” for “expression.”

Assay [4] deals with cytosolic beta-lactamase reporter. The assay is described as follows: Wash-out of inhibitor from Jurkat C2 cells (M1 receptor, NF-AT beta-lactamase reporter) (Example III). The class given is cell-based. As for the experimental part:
as §1
These studies used a Jurkat cell clone (referred to as "C2 cells" ) containing the M1 -receptor and a cytosolic beta-lactamase reporter gene (WO 96/30540 to Tsien et al., published Oct. 3, 1996)) regulated by a NF-AT response element. […] Higher beta-lactamase activity was detected in the cells as the time after the inhibitor was washed out of the cells increased.

Assay [5] has as its target T1, cytosolic beta-lactamase reporter enzyme. Kind of assay: Irreversibility of intracellular beta-lactamase inhibition in CHO GPCR reporter cells (Example IV). The class given is cell-based. The conditions noted are these: washed.
The test system of assay [6] is background beta-lactamase activity (cytosolic). The assay is described as follows: Background beta-lactamase activity in CHO reporter cells after blocking enzyme synthesis (Example I). The conditions noted are these: 40 μg/ml cycloheximide, low and high expressing CHO cells, even after 5 hours. The class given is cell-based. As for the experimental part:
as §1, with “expression. These unstimulated cells expressed the reporter enzyme at levels lower than in the stimulated cells. After sixteen hours, the media was removed, the stimulated cells and the unstimulated cells were washed once by replacing the culture media by aspiration with an equal volume of phosphate buffered saline and then treated with 40 μg/ml cycloheximide in RPMI medium 1640 with 0.1% bovine serum albumin (BSA).” for “expression.”

“Also recorded” adds a separate entry of the source.

T1 sequence (P62593 24-286 limits assumed): as above

In the case of `O=C(O)[C@H]1/C(=C/CO)O[C@@H]2CC(=O)N21` [clavulanic acid], the “background beta-lactamase activity in agonist assay” value in assay [1] (CHO cells pretreated with 300 μM clavulanic acid sixteen hours, washed, three hours agonist) is reported as “much lower”. The “signal-to-noise ratio of agonist assay” value in assay [1] (cells pretreated with clavulanic acid versus untreated) is listed as “the signal-to-noise ratio was improved”. The “reduction of cytosolic beta-lactamase reporter activity” value in assay [2] is “reduced the reduced beta-lactamase activity in these cells to levels found in cells that do not have the reporter; also recorded: essentially reduced reporter beta-lactamase activity to values found for a naive Jurkat population”. For the same compound, the “molecules of inhibitor hydrolyzed on average before the beta-lactamase is irreversibly inactivated” value in the assay with beta-lactamase (beta-lactamase used in the cell based assays, source not given) is on record as “about 100 molecules”. In addition, the “reversibility of beta-lactamase inhibition” value with beta-lactamase (literature (Bulychev et al. 1995; Knowles 1985)) is “irreversible”. Further, at cytosolic beta-lactamase (16.7 microμ clavulanic acid present), the “ratio of fluorescence from stimulated cells over unstimulated cells” value is 32 fold. For the same compound, the “improvement in signal-to-noise ratio” value at cytosolic beta-lactamase (16.7 microμ clavulanic acid versus absence of inhibitor) is listed as “almost a three-fold improvement”. Further, the “background (unstimulated) ratio levels” value on cytosolic beta-lactamase (CHO nuclear receptor reporter cells, 16.7 microμ clavulanic acid present during CCF2/AM loading) came to 0.090±0.015. The “beta-lactamase activity in stimulated cells” value at cytosolic beta-lactamase (agonist-stimulated CHO cells, 16.7 microμ clavulanic acid present during CCF2/AM loading) is given as “did not change significantly”. Further, the “background beta-lactamase reporter activity after pretreatment” value in assay [3] is “effective means of lowering the background beta-lactamase reporter activity; also recorded: readily inhibited”. Also, the “beta-lactamase activity, no-wash control” value in assay [4] (100 microM clavulanic acid for sixteen hours, inhibitor present throughout, with or without 100 microM carbacol) was “beta-lactamase activity, both residual and synthesized de novo, was reduced”. Also, the “de novo beta-lactamase activity after wash-out of inhibitor” value in assay [4] (100 microM clavulanic acid sixteen hours, washed once, 0-3 hours after wash, then 100 microM carbacol for three hours) was “Stimulation of cells, even immediately after the wash, results in de novo synthesis of beta-lactamase that can be detected”. The “persistence of inhibition of intracellular beta-lactamase reporter enzyme” value in assay [5] (300 μM clavulanic acid pretreatment, cycloheximide) is “irreversibly inhibited; also recorded: remains inhibited for at least five hours”. Besides, the “ratio values (460/40nm over 530/30nm emission)” value in assay [5] (300 μM clavulanic acid sixteen hours, 40 μg/ml cycloheximide, low and high expressing cells, even after five hours) is given as “about 0.2”.

Take `C[C@@H]1C[C@@H]([C@H](O)CC2CC(=O)NC(=O)C2)C(=O)[C@@H](C)C1` [cycloheximide]: the “ratio values (460/40nm over 530/30nm emission)” value in assay [6] is “above 0.2”.

On to `C[C@@H](O)[C@H]1C(=O)N2C(C(=O)O)=C(SCCN=CN)C[C@H]12` [imipenem], for which the “reduction of cytosolic beta-lactamase reporter activity” value in assay [2] is “did not have a similar effect”.
